Data on 2 molecules can be found in US9790189B2, “Disubstituted 5-fluoro pyrimidine derivatives containing a sulfondiimine group” (Bayer Pharma Aktiengesellschaft, priority 2014, dated 2017).

Converted amounts (≈) assume the structure as drawn. Read-outs that look alike come from different tables or passages of the source.

Data set [1] has as its system A2780 cells. Nature of the data set: Proliferation assay, A2780 (crystal violet). It counts as cell-based. Particulars: Homo sapiens, 96 h; A2780, 4 days; read-out: Inhibition of A2780 cell proliferation IC50. Here is the method:
(§1) Cultivated tumour cells (HeLa, human cervical tumour cells, ATCC CCL-2; NCI-H460, human non-small cell lung carcinoma cells, ATCC HTB-177; A2780, human ovarian carcinoma cells, ECACC #93112519; DU 145, hormone-independent human prostate carcinoma cells, ATCC HTB-81; HeLa-MaTu-ADR, multidrug-resistant human cervical carcinoma cells, EPO-GmbH Berlin; Caco-2, human colorectal carcinoma cells, ATCC HTB-37; B16F10, mouse melanoma cells, ATCC CRL-6475) were plated at a density of 5,000 cells/well (DU145, HeLa-MaTu-ADR), 3,000 cells/well (NCI-H460, HeLa), 2,500 cells/well (A2780), 1,500 cells/well (Caco-2), or 1,000 cells/well (B16F10) in a 96-well multititer plate in 200 μL of their respective growth medium supplemented 10% fetal calf serum. After 24 hours, the cells of one plate (zero-point plate) were stained with crystal violet (see below), while the medium of the other plates was replaced by fresh culture medium (200 μl), to which the test substances were added in various concentrations (0 μM, as well as in the range of 0.001-10 μM; the final concentration of the solvent dimethyl sulfoxide was 0.5%). The cells were incubated for 4 days in the presence of test substances. Cell proliferation was determined by staining the cells with crystal violet: the cells were fixed by adding 20 μl/measuring point of an 11% glutaric aldehyde solution for 15 minutes at room temperature. After three washing cycles of the fixed cells with water, the plates were dried at room temperature. The cells were stained by adding 100 μl/measuring point of a 0.1% crystal violet solution (pH 3.0). After three washing cycles of the stained cells with water, the plates were dried at room temperature. The dye was dissolved by adding 100 μl/measuring point of a 10% acetic acid solution. The extinction was determined by photometry at a wavelength of 595 nm. The change of cell number, in percent, was calculated by normalization of the measured values to the extinction values of the zero-point plate (=0%) and the extinction of the untreated (0 μm) cells (=100%).

Data set [2] can be described thus: Thermodynamic solubility in water from powder (Method 4b). It counts as physicochemical. Particulars: aqueous buffer, thermodynamic from solid, phosphate buffer pH 6.5, 24 hrs, room temperature. As to the method: (§2) 4. Equilibrium Shake Flask Solubility Assays:
4b) Thermodynamic Solubility in Water from Powder
The thermodynamic solubility of compounds in water was determined by an equilibrium shake flask method (see for example: E. H. Kerns, L. Di: Drug-like Properties: Concepts, Structure Design and Methods, 276-286, Burlington, Mass., Academic Press, 2008). A saturated solution of the drug was prepared and the solution was mixed for 24 h to ensure that equilibrium was reached. The solution was centrifuged to remove the insoluble fraction and the concentration of the compound in solution was determined using a standard calibration curve. To prepare the sample, 2 mg solid compound was weighed in a 4 mL glass vial. 1 mL phosphate buffer pH 6.5 was added. The suspension was stirred for 24 hrs at room temperature. The solution was centrifuged afterwards. To prepare the sample for the standard calibration, 2 mg solid sample was dissolved in 30 mL acetonitrile. After sonification the solution was diluted with water to 50 mL. Sample and standards were quantified by HPLC with UV-detection. For each sample two injection volumes (5 and 50 μl) in triplicates were made. Three injection volumes (5 μl, 10 μl and 20 μl) were made for the standard. […]
The areas of sample- and standard injections as well as the calculation of the solubility value (in mg/l) were determined by using HPLC software (Waters Empower 2 FR).

Data set [3] concerns B16F10 cells. Kind of data set: Proliferation assay, B16F10 (crystal violet). It counts as cell-based. Particulars: Mus musculus, B16-F10, 96 h; B16F10, 4 days; read-out: Inhibition of B16F10 cell proliferation IC50. Here is the method:
as §1

Data set [4] has as its system HeLa cells. Kind of data set: Proliferation assay, HeLa (crystal violet). It counts as cell-based. As to conditions: Homo sapiens, 96 h, 4 days, read-out: Inhibition of HeLa cell proliferation IC50. Here is the method: as §1
A short description of data set [5]: Equilibrium shake flask solubility, high throughput from DMSO solution (Method 4a). Format: physicochemical. As to conditions: phosphate buffer pH 6.5 with 1% DMSO, aqueous buffer, phosphate buffer pH 6.5, 24 hrs, room temperature.
Excerpt: as §2
4a) High Throughput Determination of Aqueous Drug Solubility (100 mmolar in DMSO)
The high throughput screening method to determine aqueous drug solubility is based on:
Thomas Onofrey and Greg Kazan, Performance and correlation of a 96-well high throughput screening method to determine aqueous drug solubility, http://www.millipore.com/publications.nsf/a73664f9f981af8c852569b9005b4eee/e565516fb76e7435852 56da30052db77/$FILE/AN1731EN00.pdf
The assay was run in a 96-well plate format. Each well was filled with an individual compound.
All pipetting steps were performed using a robot platform.
100 μl of a 10 mmolar solution of drug in DMSO were concentrated by vacuum centrifugation and resolved in 10 μl DMSO. 990 μl phosphate buffer pH 6.5 were added. The content of DMSO amounts to 1%. The multititer plate was put on a shaker and mixed for 24 hrs at room temperature. 150 μl of the suspension were transferred to a filtration plate. After filtration using a vacuum manifold the filtrate was diluted 1:400 and 1:8000. A second microtiter plate with 20 μl of a 10 mM solution of drug in DMSO served for calibration. Two concentrations (0.005 μM and 0.0025 μM) were prepared by dilution in DMSO/water 1:1 and used for calibration. Filtrate and calibration plates were quantified by HPLC-MS/MS.
Preparation of 0.1 m Phosphate Buffer pH 6.5:
61.86 g NaCl and 39.54 mg KH2PO4 were solved in water and filled up to […]. The mixture was diluted 1:10 with water and the pH adjusted to 6.5 by NaOH.
Materials: • Millipore MultiScreenHTS-HV Plate 0.45 μm
Chromatographic conditions were as follows: • HPLC column: Ascentis Express C18 2.7 μm 4.6×30 mm • Injection volume: 1 μl • Flow: 1.5 ml/min • Mobile phase: acidic gradient • A: Water/0.05% HCOOH • B: Acetonitrile/0.05% HCOOH • 0 min→95% A 5% B • 0.75 min→5% A 95% B • 2.75 min→5% A 95% B • 2.76 min→95% A 5% B • 3 min→95% A 5% B
The areas of sample- and calibration injections were determined by using mass spectromety software (AB SCIEX: Discovery Quant 2.1.3. and Analyst 1.6.1). The calculation of the solubility value (in mg/l) was executed by an inhouse developed Excel macro.

The subject of data set [6] is HeLa-MaTu-ADR cells. Kind of data set: Proliferation assay, HeLa-MaTu-ADR (crystal violet). Format: cell-based. Particulars: Homo sapiens, 96 h, 4 days, read-out: Inhibition of HeLa-MaTu-ADR cell proliferation IC50. Here is the method:
as §1

Data set [7] has as its system Caco-2 cells. Nature of the data set: Proliferation assay, Caco-2 (crystal violet). Format: cell-based. Particulars: Homo sapiens, 96 h; Caco-2, 4 days; read-out: Inhibition of Caco-2 cell proliferation IC50. Here is the method:
as §1

A short description of data set [8]: Caco-2 permeation assay (Method 5). It counts as in vitro ADME. Particulars: human; for Papp A→B at 2 h, 2 µM / Papp B→A at 2 h, 2 µM: pH 7.2, Caco-2, 2 μM test compound; for Papp A→B at 2 h, 2 µM: read-out: Papp A−B (Mari); for Papp B→A at 2 h, 2 µM: read-out: Papp B−A (Mari). A general note: Passage across Caco-2 layers is used to estimate intestinal permeability.
Experimental: Cells were maintained at 37° C. in a humidified 5% CO2 atmosphere. Medium was changed every 2-3 day. Before running the permeation assay, the culture medium was replaced by a FCS-free hepes-carbonate transport buffer (pH 7.2). For assessment of monolayer integrity the transepithelial electrical resistance (TEER) was measured. Test compounds were predissolved in DMSO and added either to the apical or basolateral compartment in final concentration of 2 μM in transport buffer. Before and after 2 h incubation at 37° C. samples were taken from both compartments. Analysis of compound content was done after precipitation with methanol by LC/MS/MS analysis. Permeability (Papp) was calculated in the apical to basolateral (A→B) and basolateral to apical (B→A) directions. […] The efflux ratio basolateral (B) to apical (A) was calculated by dividing the Papp B−A by the Papp A−B. In addition the compound recovery was calculated.

For data set [9], the system named is DU145 cells. Nature of the data set: Proliferation assay, DU145 (crystal violet). As to conditions: Homo sapiens, DU-145, 96 h; DU145, 4 days; read-out: Inhibition of DU145 cell proliferation IC50. It counts as cell-based. Here is the method: as §1
Data set [10] concerns NCI-H460 cells. Nature of the data set: Proliferation assay, NCI-H460 (crystal violet). It counts as cell-based. As to conditions: Homo sapiens, 96 h; NCI-H460, 4 days; read-out: Inhibition of NCI-H460 cell proliferation IC50. Here is the method:
as §1

For data set [11], the target named is T1, CDK2/CycE (Homo sapiens, UniProt P24941). Kind of data set: CDK2/CycE kinase assay (TR-FRET, Method 2a). For orientation: In TR-FRET formats the signal depends on donor and acceptor labels being close together.
Data set [12] addresses T2, CDK9/CycT1 (Homo sapiens, UniProt P50750). Nature of the data set: CDK9/CycT1 kinase assay (TR-FRET, Method 1a).
In data set [13] the target is T2, CDK9/CycT1.
The test system of data set [14] is MOLM-13 cells. Nature of the data set: Proliferation assay, MOLM-13 (Cell Titre-Glo). Format: cell-based. Particulars: Homo sapiens; MOLM-13, 72-hour exposure; read-out: Inhibition of MOLM-13 cell proliferation IC50. Here is the method: Non-adherent MOLM-13 human acute myeloid leukemia cells (DSMZ ACC 554) were seeded at a density of 5,000 cells/well in a 96-well multititer plate in 100 μL of growth medium supplemented 10% fetal calf serum. After 24 hours, cell viability of one plate (zero-point plate) was determined with the Cell Titre-Glo Luminescent Cell Viability Assay (Promega), while 50 μL of test compound containing medium was added to the wells of the other plates (final concentrations in the range of 0.001-10 μM and DMSO controls; the final concentration of the solvent dimethyl sulfoxide was 0.5%). Cell viability was assessed after 72-hour exposure with the Cell Titre-Glo Luminescent Cell Viability Assay (Promega).

In data set [15] the target is T1, CDK2/CycE. Nature of the data set: CDK2/CycE high ATP kinase assay (TR-FRET, Method 2b).

T2 sequence (P50750 whole entry): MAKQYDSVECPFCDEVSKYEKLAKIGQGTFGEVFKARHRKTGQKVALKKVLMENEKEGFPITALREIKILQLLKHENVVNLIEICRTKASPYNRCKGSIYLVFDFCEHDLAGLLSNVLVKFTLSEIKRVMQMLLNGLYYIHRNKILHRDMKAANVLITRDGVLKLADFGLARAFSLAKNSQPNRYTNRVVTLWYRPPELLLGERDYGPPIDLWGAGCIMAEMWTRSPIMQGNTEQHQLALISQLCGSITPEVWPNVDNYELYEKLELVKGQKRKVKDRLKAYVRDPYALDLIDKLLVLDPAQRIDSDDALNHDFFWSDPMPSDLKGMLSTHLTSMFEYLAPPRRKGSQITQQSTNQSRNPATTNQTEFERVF
T2 sequence (O60563 whole entry partner): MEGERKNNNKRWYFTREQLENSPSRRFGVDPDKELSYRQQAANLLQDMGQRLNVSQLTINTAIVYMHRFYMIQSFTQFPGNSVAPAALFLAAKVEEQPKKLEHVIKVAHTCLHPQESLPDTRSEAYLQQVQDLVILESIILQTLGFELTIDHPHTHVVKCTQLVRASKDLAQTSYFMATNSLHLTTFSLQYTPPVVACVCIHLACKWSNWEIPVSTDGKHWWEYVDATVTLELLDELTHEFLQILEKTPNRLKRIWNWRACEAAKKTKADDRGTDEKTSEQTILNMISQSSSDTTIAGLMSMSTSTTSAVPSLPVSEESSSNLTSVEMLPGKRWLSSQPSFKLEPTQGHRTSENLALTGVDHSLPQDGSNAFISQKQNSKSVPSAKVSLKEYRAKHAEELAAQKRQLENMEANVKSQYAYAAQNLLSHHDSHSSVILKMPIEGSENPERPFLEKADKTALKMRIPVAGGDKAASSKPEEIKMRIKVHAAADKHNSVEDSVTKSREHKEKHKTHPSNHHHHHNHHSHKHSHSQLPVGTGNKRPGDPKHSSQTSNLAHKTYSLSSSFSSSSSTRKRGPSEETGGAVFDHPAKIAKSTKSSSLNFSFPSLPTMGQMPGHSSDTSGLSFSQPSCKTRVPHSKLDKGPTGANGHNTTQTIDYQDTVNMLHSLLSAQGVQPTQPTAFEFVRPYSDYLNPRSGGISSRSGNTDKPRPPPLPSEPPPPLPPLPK

A word on the solubility (thermodynamic): it is the concentration in solution at equilibrium with solid. In general, Papp A→B refers to how fast a substance crosses the layer from the apical side. One may read the Papp B→A as the apparent permeability from the basolateral to the apical side of a cell layer. As for `COc1cc(F)ccc1-c1nc(Nc2cc(F)cc(CS(C)(=N)=N)c2)ncc1F` [Example 1, 5-Fluoro-4-(4-fluoro-2-methoxyphenyl)-N-{3-fluoro-5-[(S-methylsulfonodiimidoyl)methyl]phenyl}pyrimidin-2-amine], the IC50 was 201 nM in [1]; 532 nM in [3]; 252 nM in data set [4]; 327 nM in data set [6]; 386 nM in data set [7]; 341 nM in [9]. Further, the IC50 in data set [10] is 351 nM. For the same molecule, the values for the thermodynamic solubility at 24 h in [2] and in data set [5] were 91 µg/mL (≈ 216 µM) and 155 µg/mL (≈ 368 µM), respectively. Moreover, the apical-to-basolateral permeability (Papp A→B) at 2 h, 2 µM in data set [8] came to 5 ×10⁻⁶ cm/s. The Papp B→A at 2 h, 2 µM in data set [8] amounted to 28 ×10⁻⁶ cm/s.
For orientation: efflux ratio means the permeability from basolateral to apical divided by that in the opposite direction, in the common usage. Regarding `CS(=N)(=N)Cc1cc(Nc2ncc(F)c(-c3ccc(F)cc3F)n2)cc(S(F)(F)(F)(F)F)c1` [Example 7, 4-(2,4-Difluorophenyl)-5-fluoro-N-{3-[(S-methylsulfonodiimidoyl)methyl]-5-(pentafluoro-λ^6-sulfanyl)phenyl}pyrimidin-2-amine], the IC50 in data set [1] was 337 nM; in [11] it was 2300 nM; in [12] it was 17 nM; in data set [13], 26 nM; in data set [4], 346 nM; in data set [14], 244 nM. In addition, the IC50 in [15] is at least 20 µM. Besides, the “Selectivity CDK9 over CDK2: IC50 (CDK2)/IC50 (CDK9)” value in [12] (Methods 1a and 2a) amounted to 135. For the same molecule, the “Selectivity high ATP CDK9 over high ATP CDK2: IC50 (high ATP CDK2)/IC50 (high ATP CDK9)” value in data set [13] (Methods 1b and 2b) came to 769. This molecule also returned a thermodynamic solubility at 24 h in [5] of 1.2 µg/mL (≈ 2.32 µM). In addition, in [8] (Caco-2, pH 7.2), the efflux ratio at 2 h, 2 µM was determined as 1.1. In addition, in data set [8], the Papp A→B at 2 h, 2 µM was 3.21 ×10⁻⁶ cm/s. Further, in [8], the Papp B→A at 2 h, 2 µM was 3.57 ×10⁻⁶ cm/s.
